Test results: patent US10683327B2, “Compounds, linker-drugs and ligand-drug conjugates” (priority 2015, dated 2020)
Read-outs that look alike come from different tables or passages of the source. Numbered stars: 1 amine (or outer) side, 2 acyl side, 3 side chain; on linkers, the order of the positions; unused ones are H or OH. Square brackets hold non-standard residues; d marks the D form. Peptide text beside a SMILES is read from it. * marks the point of attachment. ξ: configuration not given here. X1 = CC[C@H](C)[C@H]([C@@H](CC(=O)[*:2])OC)N(C)[*:1]; Phe(4-NO2) = N[C@@H](Cc1ccc([N+](=O)[O-])cc1)C(=O)O; Dolaproine = CO[C@@H]([C@@H]1CCCN1)[C@@H](C)C(=O)O; ξDil = CC[C@H](C)C([C@@H](CC(=O)[*:2])OC)N(C)[*:1]; Dil = CC[C@H](C)[C@H](NC)[C@@H](CC(=O)O)OC; Phe(4-NH2) = Nc1ccc(C[C@H](N)C(=O)O)cc1; NMe2Val = CC(C)[C@@H](C(=O)*)N(C)C; X2 = C[C@@H](N*)[C@@H](O)c1ccccc1; NMeV = CN[C@H](C(=O)O)C(C)C; ξF = NC(Cc1ccccc1)C(=O)O; ξV = CC(C)C(N)C(=O)O

Test system: FaDu cells
Assay: Potency of AF derivatives: FaDu cell viability by the MTT method
Assay type: cell-based
Details: for IC50: exposure to toxins for 120 hours, MTT; for potency in FaDu cells compared with MMAE and auristatin F (AF): statement in words on Table 2
Procedure: FaDu cells were seeded in Corning CellBIND 96-well plates at densities of 2500 cells/well. […] Then, the cells were rinsed once and assayed for cell viability with the MTT method. The old medium was aspirated and 100 uL of 0.5 mg/mL MTT containing medium was added into each well. After incubation for 4 hours, the MTT reagent was removed and the precipitate was dissolved in DMSO. The photometry intensity of the cells was measured by the microplate reader (Multiskan Ascent, Thermo Labsystems) of absorbance wavelength at 570 nm. Cell viability was calculated by the following equation. Cell Viability (%)=(Ins−Inb)/(Inc−Inb)×100%
In this equation, “Ins” is the photometry intensity of the cells incubated with a given toxin, “Inb” is the intensity of a blank well without cell seeding, and “Inc” is the intensity of the cells incubated with the culture medium only (positive control).

Structure (SMILES) | IC50 (n=6) | IC50 (Homo sapiens, FaDu, 120 h, n=6) | potency in FaDu cells compared with MMAE and auristatin F (AF) | IC50 (n=6, read-out: IC50)
CC[C@H](C)C([C@@H](CC(=O)N1CCC[C@H]1[C@H](OC)[C@@H](C)C(=O)NC(Cc1ccc(N)cc1)C(=O)Nc1cnc2ccccc2c1)OC)N(C)C(=O)C(NC(=O)[C@H](C(C)C)N(C)C)C(C)C (some centres unmarked) [3AQ-AAF] | 0.49 nM | – | – | –
CC[C@H](C)C([C@@H](CC(=O)N1CCC[C@H]1[C@H](OC)[C@@H](C)C(=O)NC(Cc1ccc(N)cc1)C(=O)Nc1cnc2ccccc2c1)OC)N(C)C(=O)C(NC(=O)[C@H](C(C)C)N(C)C)C(C)C (some centres unmarked) [3AQ-ANF] | – | 0.35 nM | comparable to the well-known toxin MMAE | –
CC[C@H](C)[C@@H]([C@@H](CC(=O)N1CCC[C@H]1[C@H](OC)[C@@H](C)C(=O)N[C@@H](Cc1ccccc1)C(=O)O)OC)N(C)C(=O)[C@@H](NC(=O)[C@H](C(C)C)N(C)C)C(C)C [AF, auristatin F, reference compound] (NMe2Val-V[Dil][Dolaproine]F-OH) | – | – | – | 15.2 nM
CC[C@H](C)[C@H]([C@@H](CC(=O)N1CCC[C@H]1[C@H](OC)[C@@H](C)C(=O)NC(Cc1ccccc1)C(=O)N[C@@H](Cc1ccc(N)cc1)C(=O)O)OC)N(C)C(=O)[C@@H](NC(=O)[C@H](C(C)C)N(C)C)C(C)C (some centres unmarked) [APEA(COOH)-AF] (NMe2Val-V[X1][Dolaproine][ξF][Phe(4-NH2)]-OH) | – | > 100 nM | least potency | –
CC[C@H](C)[C@H]([C@@H](CC(=O)N1CCC[C@H]1[C@H](OC)[C@@H](C)C(=O)NC(Cc1ccccc1)C(=O)N[C@@H](Cc1ccc(N)cc1)C(=O)OC)OC)N(C)C(=O)[C@@H](NC(=O)[C@H](C(C)C)N(C)C)C(C)C (some centres unmarked) [APEA(COOMe)-AF] (NMe2Val-V[X1][Dolaproine][ξF][Phe(4-NH2)]-OMe) | – | 0.93 nM | comparable to the well-known toxin MMAE | –
CC[C@H](C)C([C@@H](CC(=O)N1CCC[C@H]1[C@H](OC)[C@@H](C)C(=O)NC(Cc1ccccc1)C(=O)NCCc1ccc(N)cc1)OC)N(C)C(=O)C(NC(=O)[C@H](C(C)C)N(C)C)C(C)C (some centres unmarked) [APEA-AF] | – | 0.7 nM | comparable to the well-known toxin MMAE | –
CC[C@H](C)[C@@H]([C@@H](CC(=O)N1CCC[C@H]1[C@H](OC)[C@@H](C)C(=O)N[C@H](C)[C@@H](O)c1ccccc1)OC)N(C)C(=O)[C@@H](NC(=O)[C@@H](NC)C(C)C)C(C)C [MMAE, reference compound] (H-[NMeV]V[Dil][Dolaproine]-X2) | – | – | – | 0.38 nM
CC[C@H](C)C([C@@H](CC(=O)N1CCC[C@H]1[C@H](OC)[C@@H](C)C(=O)NC(Cc1ccccc1)C(=O)N[C@@H](Cc1ccc([N+](=O)[O-])cc1)C(=O)O)OC)N(C)C(=O)C(NC(=O)[C@H](C(C)C)N(C)C)C(C)C (some centres unmarked) [NPEA(COOH)-AF] (NMe2Val-[ξV][ξDil][Dolaproine][ξF][Phe(4-NO2)]-OH) | – | 23.2 nM | – | –
CC[C@H](C)C([C@@H](CC(=O)N1CCC[C@H]1[C@H](OC)[C@@H](C)C(=O)NC(Cc1ccccc1)C(=O)N[C@@H](Cc1ccc([N+](=O)[O-])cc1)C(=O)OC)OC)N(C)C(=O)C(NC(=O)[C@H](C(C)C)N(C)C)C(C)C (some centres unmarked) [NPEA(COOMe)-AF] (NMe2Val-[ξV][ξDil][Dolaproine][ξF][Phe(4-NO2)]-OMe) | – | 0.44 nM | comparable to the well-known toxin MMAE | –
CC[C@H](C)C([C@@H](CC(=O)N1CCC[C@H]1[C@H](OC)[C@@H](C)C(=O)NC(Cc1ccc(N)cc1)C(=O)NCCc1ccccc1)OC)N(C)C(=O)C(NC(=O)[C@H](C(C)C)N(C)C)C(C)C (some centres unmarked) [PEA-AAF] | 0.39 nM | – | – | –
CC[C@H](C)C([C@@H](CC(=O)N1CCC[C@H]1[C@H](OC)[C@@H](C)C(=O)NC(Cc1ccc(N)cc1)C(=O)NCCc1ccccc1)OC)N(C)C(=O)C(NC(=O)[C@H](C(C)C)N(C)C)C(C)C (some centres unmarked) [PEA-ANF] | 1.26 nM | – | comparable to the well-known toxin MMAE | –
